Data as given in ChEMBL document CHEMBL1131189, “Conformationally restricted analogues of 1N,12N-bisethylspermine: synthesis and growth inhibitory effects on human tumor cell lines” (1998).

Tests used:
A549 = assay: Growth inhibitory activity was measured for human A549 tumor cell line.; format: functional; conditions: Homo sapiens, A549; read-out: ID50 (the source's name)
DU-145 [1] = assay: The concentration levels of putrescine (PU) evaluated in DU145 cells treated with the compound concentration of 10 uM on fifth day of treatment.; format: functional, cell-based; conditions: Homo sapiens
DU-145 [2] = assay: The concentration levels of putrescine (PU) evaluated in DU145 cells treated with the compound concentration of 10 uM on third day of treatment.; format: functional, cell-based; conditions: Homo sapiens
DU-145 [3] = assay: The concentration levels of spermidine (SD) evaluated in DU145 cells treated with the compound concentration of 10 uM on fifth day of treatment.; format: functional, cell-based; conditions: Homo sapiens
DU-145 [4] = assay: The concentration levels of spermidine (SD), evaluated in DU145 cells treated with the compound concentration of 10 uM on third day of treatment.; format: functional, cell-based; conditions: Homo sapiens
DU-145 [5] = assay: The concentration levels of analogue evaluated in DU145 cells treated with the compound concentration of 10 uM on fifth day of treatment.; format: functional, cell-based; conditions: Homo sapiens
DU-145 [6] = assay: The concentration levels of analogue evaluated in DU145 cells treated with the compound concentration of 10 uM on third day of treatment.; format: functional, cell-based; conditions: Homo sapiens
DU-145 [7] = assay: The concentration levels of spermine (SP) evaluated in DU145 cells treated with the compound concentration of 10 uM on fifth day of treatment.; format: functional, cell-based; conditions: Homo sapiens
DU-145 [8] = assay: The concentration levels of spermine (SP), evaluated in DU145 cells treated with the compound concentration of 10 uM on third day of treatment.; format: functional, cell-based; conditions: Homo sapiens
HT-29 = assay: Growth inhibitory activity was measured for human HT-29 tumor cell line.; format: functional; conditions: Homo sapiens, HT-29; read-out: ID50 (the source's name)
MCF7 = assay: Growth inhibitory activity was measured for human MCF-7 tumor cell line.; format: functional; conditions: read-out: ID50 (the source's name)
PC-3 = assay: Growth inhibitory activity was measured for human PC-3 tumor cell line.; format: functional; conditions: Homo sapiens, PC-3; read-out: ID50 (the source's name)
U-251 = assay: Growth inhibitory activity was measured for human U251MG NCI tumor cell line.; format: functional; conditions: read-out: ID50 (the source's name)
DU-145 [9] = assay: The concentration levels of spermidine (SD), evaluated for the polyamine and analogue levels in DU145 cells treated with the compound concentration of 0 uM on third day of treatment.; format: functional, cell-based; conditions: Homo sapiens
DU-145 [10] = assay: The concentration levels of spermine (SP), evaluated for the polyamine and analogue levels in DU145 cells treated with the compound concentration of 5 uM on fthird day of treatment.; format: functional, cell-based; conditions: Homo sapiens
DU-145 [11] = assay: The concentration levels of spermidine (SD), evaluated for the polyamine and analogue levels in DU145 cells treated with the compound concentration of 5 uM on third day of treatment.; format: functional, cell-based; conditions: Homo sapiens
DU-145 [12] = assay: The concentration levels of spermine (SP) evaluated for the polyamine and analogue levels in DU145 cells treated with the compound concentration of 0 uM on fifth day of treatment.; format: functional, cell-based; conditions: Homo sapiens
DU-145 [13] = assay: The concentration levels of spermine (SP) evaluated for the polyamine and analogue levels in DU145 cells treated with the compound concentration of 5 uM on fifth day of treatment.; format: functional, cell-based; conditions: Homo sapiens
DU-145 [14] = assay: The concentration levels of analogue evaluated for the polyamine and analogue levels in DU145 cells treated with the compound concentration of 5 uM on third day of treatment.; format: functional, cell-based; conditions: Homo sapiens
DU-145 [15] = assay: The concentration levels of putrescine (PU) evaluated for the polyamine and analogue levels in DU145 cells treated with the compound concentration of 0 uM on fifth day of treatment.; format: functional, cell-based; conditions: Homo sapiens
DU-145 [16] = assay: The concentration levels of putrescine (PU) evaluated for the polyamine and analogue levels in DU145 cells treated with the compound concentration of 0. uM on third day of treatment.; format: functional, cell-based; conditions: Homo sapiens
DU-145 [17] = assay: The concentration levels of putrescine (PU) evaluated for the polyamine and analogue levels in DU145 cells treated with the compound concentration of 5 uM on fifth day of treatment.; format: functional, cell-based; conditions: Homo sapiens
DU-145 [18] = assay: The concentration levels of putrescine (PU) evaluated for the polyamine and analogue levels in DU145 cells treated with the compound concentration of 5 uM on third day of treatment.; format: functional, cell-based; conditions: Homo sapiens
DU-145 [19] = assay: The concentration levels of analogue evaluated for the polyamine and analogue levels in DU145 cells treated with the compound concentration of 0 uM on fifth day of treatment.; format: functional, cell-based; conditions: Homo sapiens
DU-145 [20] = assay: The concentration levels of analogue evaluated for the polyamine and analogue levels in DU145 cells treated with the compound concentration of 0 uM on third day of treatment.; format: functional, cell-based; conditions: Homo sapiens
DU-145 [21] = assay: The concentration levels of analogue evaluated for the polyamine and analogue levels in DU145 cells treated with the compound concentration of 5 uM on fifth day of treatment.; format: functional, cell-based; conditions: Homo sapiens
DU-145 [22] = assay: The concentration levels of spermidine (SD) evaluated for the polyamine and analogue levels in DU145 cells treated with the compound concentration of 0 uM on fifth day of treatment.; format: functional, cell-based; conditions: Homo sapiens
DU-145 [23] = assay: The concentration levels of spermidine (SD) evaluated for the polyamine and analogue levels in DU145 cells treated with the compound concentration of 5 uM on fifth day of treatment.; format: functional, cell-based; conditions: Homo sapiens
DU-145 [24] = assay: The concentration levels of spermine (SP), evaluated for the polyamine and analogue levels in DU145 cells treated with the compound concentration of 0 uM on third day of treatment.; format: functional, cell-based; conditions: Homo sapiens
DU-145 [25] = assay: The concentration levels of spermidine (SD) evaluated in DU145 cells treated with the compound concentration of 2 uM on third day of treatment.; format: functional, cell-based; conditions: Homo sapiens
DU-145 [26] = assay: The concentration levels of spermidine (SD) evaluated in DU145 cells treated with the compound concentration of 0.02 uM on third day of treatment.; format: functional, cell-based; conditions: Homo sapiens
DU-145 [27] = assay: The concentration levels of spermidine (SD), evaluated in DU145 cells treated with the compound concentration of 0.02 uM on first day of treatment.; format: functional, cell-based; conditions: Homo sapiens
DU-145 [28] = assay: The concentration levels of spermidine (SD), evaluated in DU145 cells treated with the compound concentration of 2 uM on first day of treatment.; format: functional, cell-based; conditions: Homo sapiens
DU-145 [29] = assay: The concentration levels of analogue evaluated in DU145 cells treated with the compound concentration of 0.02 uM on first day of treatment.; format: functional, cell-based; conditions: Homo sapiens
DU-145 [30] = assay: The concentration levels of analogue evaluated in DU145 cells treated with the compound concentration of 0.02 uM on third day of treatment.; format: functional, cell-based; conditions: Homo sapiens
DU-145 [31] = assay: The concentration levels of analogue evaluated in DU145 cells treated with the compound concentration of 2 uM on first day of treatment.; format: functional, cell-based; conditions: Homo sapiens
DU-145 [32] = assay: The concentration levels of analogue evaluated in DU145 cells treated with the compound concentration of 2 uM on third day of treatment.; format: functional, cell-based; conditions: Homo sapiens
DU-145 [33] = assay: The concentration levels of spermine (SP) evaluated in DU145 cells treated with the compound concentration of 0.02 uM on third day of treatment.; format: functional, cell-based; conditions: Homo sapiens
DU-145 [34] = assay: The concentration levels of spermine (SP) evaluated in DU145 cells treated with the compound concentration of 2 uM on third day of treatment.; format: functional, cell-based; conditions: Homo sapiens
DU-145 [35] = assay: The concentration levels of spermine (SP), evaluated in DU145 cells treated with the compound concentration of 0.02 uM on first day of treatment.; format: functional, cell-based; conditions: Homo sapiens
DU-145 [36] = assay: The concentration levels of spermine (SP), evaluated in DU145 cells treated with the compound concentration of 2 uM on first day of treatment.; format: functional, cell-based; conditions: Homo sapiens
DU-145 [37] = assay: The concentration levels of putrescine (PU) evaluated in DU145 cells treated with the compound concentration of 0.02 uM on first day of treatment.; format: functional, cell-based; conditions: Homo sapiens
DU-145 [38] = assay: The concentration levels of putrescine (PU) evaluated in DU145 cells treated with the compound concentration of 0.02 uM on third day of treatment.; format: functional, cell-based; conditions: Homo sapiens
DU-145 [39] = assay: The concentration levels of putrescine (PU) evaluated in DU145 cells treated with the compound concentration of 2 uM on first day of treatment.; format: functional, cell-based; conditions: Homo sapiens
DU-145 [40] = assay: The concentration levels of putrescine (PU) evaluated in DU145 cells treated with the compound concentration of 2 uM on third day of treatment.; format: functional, cell-based; conditions: Homo sapiens
DU-145 [41] = assay: The concentration levels of putrescine (PU) evaluated in DU145 cells treated with the compound concentration of 2 uM on third day of treatment; Not quantifiable; format: functional, cell-based; conditions: Homo sapiens
DU-145 [42] = assay: The concentration levels of spermidine (SD) evaluated in DU145 cells treated with the compound concentration of 2 uM on third day of treatment; Not quantifiable; format: functional, cell-based; conditions: Homo sapiens
DU-145 [43] = assay: The concentration levels of putrescine (PU) evaluated in DU145 cells treated with the compound concentration of 2 uM on first day of treatment; Not quanitfiable; format: functional, cell-based; conditions: Homo sapiens

Compound | IC50 (A549) | IC50 (HT-29) | IC50 (MCF7) | IC50 (PC-3) | IC50 (U-251) | Concentration (nM (10e6*cells)-1) (DU-145 [26]) | Concentration (nM (10e6*cells)-1) (DU-145 [27]) | Concentration (nM (10e6*cells)-1) (DU-145 [28]) | Concentration (nM (10e6*cells)-1) (DU-145 [29]) | Concentration (nM (10e6*cells)-1) (DU-145 [30]) | Concentration (nM (10e6*cells)-1) (DU-145 [31]) | Concentration (nM (10e6*cells)-1) (DU-145 [32]) | Concentration (nM (10e6*cells)-1) (DU-145 [33]) | Concentration (nM (10e6*cells)-1) (DU-145 [34]) | Concentration (nM (10e6*cells)-1) (DU-145 [35]) | Concentration (nM (10e6*cells)-1) (DU-145 [36]) | Concentration (nM (10e6*cells)-1) (DU-145 [37]) | Concentration (nM (10e6*cells)-1) (DU-145 [38]) | other results
CCNCCCNCc1ccccc1CNCCCNCC | > 31.2 µM | > 31.2 µM | > 31.2 µM | > 31.2 µM | > 31.2 µM |  |  |  |  |  |  |  |  |  |  |  |  |  | Concentration (nM (10e6*cells)-1) (DU-145 [1]): 0.06; Concentration (nM (10e6*cells)-1) (DU-145 [2]): 0.12; Concentration (nM (10e6*cells)-1) (DU-145 [3]): 1.84; Concentration (nM (10e6*cells)-1) (DU-145 [4]): 1.5; Concentration (nM (10e6*cells)-1) (DU-145 [5]): 1.25; Concentration (nM (10e6*cells)-1) (DU-145 [6]): 0.82; Concentration (nM (10e6*cells)-1) (DU-145 [7]): 2.13; Concentration (nM (10e6*cells)-1) (DU-145 [8]): 2.7
CCNCCCNCC#CCNCCCNCC | > 31.2 µM | > 31.2 µM | > 31.2 µM | > 31.2 µM | > 31.2 µM |  |  |  |  |  |  |  |  |  |  |  |  |  | Concentration (nM (10e6*cells)-1) (DU-145 [9]): 1.73; Concentration (nM (10e6*cells)-1) (DU-145 [10]): 2.56; Concentration (nM (10e6*cells)-1) (DU-145 [11]): 0.9; Concentration (nM (10e6*cells)-1) (DU-145 [12]): 1.55; Concentration (nM (10e6*cells)-1) (DU-145 [13]): 1.33; Concentration (nM (10e6*cells)-1) (DU-145 [14]): 2.16; Concentration (nM (10e6*cells)-1) (DU-145 [15]): 0.03; Concentration (nM (10e6*cells)-1) (DU-145 [16]): 0.11; Concentration (nM (10e6*cells)-1) (DU-145 [17]): 0.06; Concentration (nM (10e6*cells)-1) (DU-145 [18]): 0.04; Concentration (nM (10e6*cells)-1) (DU-145 [19]): 0.03; Concentration (nM (10e6*cells)-1) (DU-145 [20]): 0.06; Concentration (nM (10e6*cells)-1) (DU-145 [21]): 1.71; Concentration (nM (10e6*cells)-1) (DU-145 [22]): 1.55; Concentration (nM (10e6*cells)-1) (DU-145 [23]): 0.59; Concentration (nM (10e6*cells)-1) (DU-145 [24]): 3.13
CCNCCCNCC1CC1CNCCCNCC (stereo in doubt; 5) |  |  |  |  |  | 1.41 | 1.92 | 2.63 | 0.14 | 0.06 | 0.33 | 0.18 | 2.73 | 2.28 | 2.48 | 2.64 | 0.2 | 0.08 | Concentration (nM (10e6*cells)-1) (DU-145 [25]): 1.38; Concentration (nM (10e6*cells)-1) (DU-145 [39]): 0.55; Concentration (nM (10e6*cells)-1) (DU-145 [40]): 0.05
CCNCCCNCC1CC1CNCCCNCC (stereo in doubt; 9) |  |  |  |  |  | 1.01 | 1.64 | 0.1 | 0.9 | 0.15 | 4.08 | 3.97 | 1.97 | 0.06 | 2.16 | 0.4 | 0.18 | 0.05 | Concentration (DU-145 [41]): Not quantifiable; Concentration (DU-145 [42]): Not quantifiable; Concentration (DU-145 [43]): Not quantifiable
